Data taken from US20260306525A1, “COMBINATION THERAPY GLUCOCORTICOIDS AND GINSENOSIDE” (FYTAGORAS B.V., priority 2023, published 2026).

Experiments:
zebrafish larvae [1] = assay: larval body length; details: for larval length: Example 2, 5 dpf
Procedure: (§4) In experiments in which the length of regenerated tail fin tissue after wounding, or the larval body length, was used as a readout, chemical treatments were started at 2 hours post-fertilization (hpf) and continued until 5 dpf, as indicated (15 larvae per treatment group). During this period, solutions were refreshed daily. For the regeneration experiments, tail fins were amputated at 2 dpf. At 5 dpf, larvae were fixed overnight in 4% PFA at 4° C. For determination of the larval length and the regeneration of the tail fins, larvae were imaged using a LeicaMZ16FA fluorescence stereomicroscope supported by LAS 3.7 software. The length of the entire larva or the newly grown tissue was measured using ImageJ software. The newly grown tissue can be visually distinguished from the old tissue, enabling precise measurement of its length.

mmp13 = assay: qPCR mmp13 expression in zebrafish larvae; format: in vivo, zebrafish (Danio rerio); details: Example 2, wounded larvae
Procedure: (§1) To determine mRNA levels of specific genes in zebrafish, 3 dpf larvae were used (wounded and non-wounded) and after 6 h of chemical treatments (2 h pre-wounding, 4 h post-wounding), as indicated. Per sample, groups of 15 larvae were collected in TRIzol reagent (Thermo Fisher Scientific, Waltham, MA, USA), and total RNA was isolated using the miRNeasy mini kit (Qiagen, Hilden, Germany). For similar experiments in Hela cells, cells were seeded in 6 well plates, and after 6 h of chemical treatment, the cells were removed from the wells using TRIzol reagent, and total RNA was isolated using the miRNeasy mini kit according to the manufacturer's instructions. The RNA samples were DNAse-treated utilizing the DNA-free™ DNA Removal Kit (Thermo Fisher Scientific). The cDNA synthesis was performed using the iScript cDNA synthesis kit (Bio-Rad Laboratories, Hercules, CA, USA) using 1 μg of RNA per sample. For the PCR reactions, 10 μM of forward and 10 μM of reverse primer, 12.5 μl of iQ SYBR Green Supermix (Bio-Rad), and 2 μl of cDNA were added to the qPCR reaction mixture. […] The reactions were performed on a MyiQ-single-color real-time PCR detection system (Bio-Rad Laboratories) with initial denaturation for 3 min at 95° C. and 40 cycles of 15 s at 95.5° C., 15 s at 60° C., and 30 s at 72° C. Cycle threshold values (Ct values, i.e. the cycle numbers at which a threshold value of the fluorescence intensity was reached) were determined for each sample. The gene expression level for each sample was normalized using the expression of ppial (peptidylprolyl isomerase Ab (cyclophilin A)) for zebrafish samples, 18S rRNA for human cells. The fold change per sample (compared to the respective control group) was calculated using the ΔΔCt method.

nfkbiaa = assay: qPCR nfkbiaa expression in zebrafish larvae; format: in vivo, zebrafish (Danio rerio); details: for nfkbiaa expression: Example 2, 6 h treatment
Procedure: (§2) […] Groups of 15 larvae were collected in TRIzol reagent (ThermoFisher) and total RNA was isolated using miRNeasy mini kit (Qiagen, Hilden, Germany). For experiments in HeLa cells, cells were seeded in 6 well plates and after treatment, the cells were removed from the wells using TRIzol reagent and mRNA was isolated using miRNeasy mini kit (Qiagen) according to the manufacturer's instructions. The RNA samples were DNAse-treated utilizing the DNA-free™ DNA Removal Kit (ThermoFisher Scientific). The cDNA synthesis was performed using the iScript cDNA synthesis kit (Bio-Rad Laboratories, Hercules, CA, USA) using 1 μg of RNA per sample. For qPCR, 10 μM of forward primer and 10 μM of reverse primer, 12.5 μl of IQ SYBR Green Supermix (Bio-Rad Laboratories), and 2 μl of cDNA were added to the qPCR reaction mixture. […] The qPCR reactions were performed on a MyiQ-single-color real-time PCR detection system (Bio-Rad Laboratories), with initial denaturation for 3 min, 95° C., and 40 cycles of 15 s at 95.5° C., 15 s at 60° C., and 30 s at 72° C. Cycle threshold values (Ct values, i.e. the cycle numbers at which a threshold value of the fluorescence intensity was reached) were determined for each sample. The gene expression level for each sample was normalized using the expression of ppial (peptidylprolyl isomerase Ab (cyclophilin A)) for zebrafish samples, and 18S rRNA for human cells. The fold change per sample (compared to the respective control group) was calculated using the […]Ct method.
as §1, with “To determine mRNA levels of specific genes in zebrafish, 3 dpf larvae were used (wounded and non-wounded) and after 6 h of chemical treatments (2 h pre-wounding, 4 h post-wounding), as indicated.” left out

gr = assay: Gr transactivation activity in Tg(9xGCRE-HSV.UI23:EGFP)ia20 reporter larvae; format: in vivo, zebrafish (Danio rerio); details: for GFP fluorescence intensity (Gr transactivation): Example 2, 24 h, 3 dpf
Procedure: (§3) To investigate the Gr transactivation activity in zebrafish larvae, the Tg(9xGCRE-HSV.UI23:EGFP)^ia20 reporter line was used, which expresses enhanced green fluorescent protein (EGFP) under the control of a promoter containing an array of nine GREs. […] The integrated intensity of the EGFP signal in the larvae was determined using ImageJ software.
as §3, with “Tg(9xGCRE-HSV.UI23:EGFP^ia20)” for “Tg(9xGCRE-HSV.UI23:EGFP)^ia20”

zebrafish larvae [2] = assay: whole-body cortisol measurement of zebrafish larvae (ELISA); details: for whole-body cortisol level: Example 2, non-wounded; for whole-body cortisol level / whole-body cortisol level upon wounding: 5 dpf; for whole-body cortisol level upon wounding: Example 2, wounded at 2 dpf
Procedure: Ethyl acetate was added to the homogenate. The homogenates were then centrifuged at 4° C. for 8 min at 11,000 rpm and the supernatant was collected and vaporized. A volume of 150 μl of 0.2% Bovine serum albumin (Sigma-Aldrich) dissolved in PBS was added to the samples and frozen. Whole-body cortisol levels of the zebrafish larvae were determined by ELISA (Demeditec Diagnostics GmbH, Kiel-Wellsee, Germany), following the manufacturer's instructions. In each experiment, three biological replicates were used for each treatment group, and the ELISA was performed using technical duplicates.
Tail fin wounding were performed at 2 days post-fertilization (dpf). At 96hpf, the treatments were stopped, and larvae were incubated in egg water until 5 dpf to avoid cross-reactivity between the compounds and the cortisol antibody used in the ELISA. At dpf, the larvae were collected in an Eppendorf tube (30 larvae per sample), and 100 μl of ice-cold egg water was added. After the excess water had been taken out, the samples were glaciated in ethanol (EtOH)/dry-ice bath. Subsequently, the larvae were homogenized using a BulletBlender® for 3 min at 8,000 rpm. Ethyl acetate was added to the homogenate. The homogenates were then centrifuged at 4° C. for 8 min at 11,000 rpm, and the supernatant was collected and vaporized. A volume of 150 μl of 0.2% bovine serum albumin (Sigma-Aldrich) dissolved in PBS was added to the samples and frozen. Whole-body cortisol levels of the zebrafish larvae were determined using a Cortisol free in Saliva ELISA kit (Demeditec Diagnostics GmbH, Kiel-Wellsee, Germany), following the manufacturer's instructions. In each experiment, three biological replicates were used for each treatment group, and the ELISA was performed using technical duplicates.

pck1 = assay: qPCR pck1 expression in zebrafish larvae; format: in vivo, zebrafish (Danio rerio)
Procedure: as §2
as §1, with “To determine mRNA levels of specific genes in zebrafish, 3 dpf larvae were used (wounded and non-wounded) and after 6 h of chemical treatments (2 h pre-wounding, 4 h post-wounding), as indicated.” left out

zebrafish larvae [3] = assay: tail fin regeneration assay; details: for tissue regeneration of tail fin: Example 2, amputation at 2 dpf, read at 5 dpf; for tissue regeneration upon wounding: Example 2, wounded at 2 dpf (second statement on FIG. 8F)
Procedure: as §4

il8 = assay: qPCR il8 expression in zebrafish larvae; format: in vivo, zebrafish (Danio rerio); details: Example 2, wounded larvae
Procedure: as §1

fkbp5 = assay: qPCR fkbp5 expression in zebrafish larvae; format: in vivo, zebrafish (Danio rerio)
Procedure: as §2
as §1, with “To determine mRNA levels of specific genes in zebrafish, 3 dpf larvae were used (wounded and non-wounded) and after 6 h of chemical treatments (2 h pre-wounding, 4 h post-wounding), as indicated.” left out

[4] = 5 dpf, 6 h, beclomethasone 10 μM, Rg1 50 μM or combination
[5] = 5 dpf, 5 days, beclomethasone 10 μM, Rg1 50 μM or combination
[6] = 3 dpf, wounded larvae, 6 h, 10 μM beclomethasone, 50 μM Rg1 or combination

| SMILES | larval length (zebrafish larvae [1]) | mmp13 expression (mmp13) | nfkbiaa expression (nfkbiaa) | GFP fluorescence intensity (Gr transactivation) (gr) | whole-body cortisol level (zebrafish larvae [2]) | whole-body cortisol level upon wounding (zebrafish larvae [2]) | pck1 expression (pck1; Example 2, 6 h treatment) | tissue regeneration of tail fin (zebrafish larvae [3]) | tissue regeneration upon wounding (zebrafish larvae [3]) | il8 expression (il8) | fkbp5 expression (fkbp5; Example 2, 6 h treatment) | also measured |
| --- | --- | --- | --- | --- | --- | --- | --- | --- | --- | --- | --- | --- |
| CC(C)=CCC[C@](C)(O[C@@H]1O[C@H](CO)[C@@H](O)[C@H](O)[C@H]1O)[C@H]1CC[C@]2(C)[C@@H]1[C@H](O)C[C@@H]1[C@@]3(C)CC[C@H](O)C(C)(C)[C@@H]3[C@@H](O[C@@H]3O[C@H](CO)[C@@H](O)[C@H](O)[C@H]3O)C[C@]12C [Rg1, (3β,6α, 12β)-3,12-Dihydroxydammar-24-ene-6,20-diyl bis-β-D-glucopyranoside] | did not show any side effects | no effect | did not increase the expression | none of the ginsenosides PPT, F1, Rh1, and Rg1 altered the fluorescence intensity | did not show any side effects | still not show any effect on the glucose or cortisol level or on tissue regeneration | did not increase the expression | did not show any side effects | still not show any effect on the glucose or cortisol level or on tissue regeneration | no effect | did not increase the expression | larval length at 5 dpf (zebrafish larvae [1]; 0-5 dpf, 10 μM beclomethasone, 50 μM Rg1 or combination): did not affect the larval length; nfkbiaa expression, short-term treatment (nfkbiaa; [4]): did not affect the expression of the genes; nfkbiaa expression, long-term treatment (nfkbiaa; [5]): did not affect the expression of the genes; relative EGFP intensity (Gr transactivation) (gr; 24 h from 2 dpf, 10 μM GC, 50 μM Rg1 or combination): did not affect the EGFP signal; whole body cortisol level (zebrafish larvae [2]; 0-4 dpf, 10 μM beclomethasone, 50 μM Rg1 or combination): did not affect the whole-body glucose and cortisol concentrations; pck1 expression (pck1; [6]): did not affect the expression of these genes; pck1 expression, short-term treatment (pck1; [4]): did not affect the expression of the genes; pck1 expression, long-term treatment (pck1; [5]): did not affect the expression of the genes; regeneration of amputated tail fin (length of regenerated tissue at 5 dpf) (zebrafish larvae [3]; 0-5 dpf, 10 μM beclomethasone or dexamethasone, 50 μM Rg1 or combinations, amputation at 2 dpf): did not affect the regenerative process; fkbp5 expression (fkbp5; [6]): did not affect the expression of these genes; fkbp5 expression, short-term treatment (fkbp5; 6 h, beclomethasone 10 μM, Rg1 50 μM or combination): did not affect the expression of the genes; fkbp5 expression, long-term treatment (fkbp5; 5 days, beclomethasone 10 μM, Rg1 50 μM or combination): did not affect the expression of the genes |
| CC(C)=CCC[C@](C)(O)[C@H]1CC[C@]2(C)[C@@H]1[C@H](O)C[C@@H]1[C@@]3(C)CC[C@H](O)C(C)(C)[C@@H]3[C@@H](O[C@@H]3O[C@H](CO)[C@@H](O)[C@H](O)[C@H]3O)C[C@]12C [Rh1] | did not show any side effects | no effect | did not increase the expression | none of the ginsenosides PPT, F1, Rh1, and Rg1 altered the fluorescence intensity | did not show any side effects | still not show any effect on the glucose or cortisol level or on tissue regeneration | did not increase the expression | did not show any side effects | still not show any effect on the glucose or cortisol level or on tissue regeneration | no effect | did not increase the expression |  |
